Results on 1 molecule are retold here after ChEMBL document CHEMBL4477234, “Potent Suppressive Effects of 1-Piperidinylimidazole Based Novel P2X7 Receptor Antagonists on Cancer Cell Migration and Invasion” (J Med Chem, 2016).

SMILES strings stand for the structures. Active and inactive are the calls of the source. The rule behind the calls is not given here.

Data set [1] is described as follows: Toxicity in zebrafish assessed as induction of teratogenic developmental toxicity at 10 uM. Also noted: species or system Danio rerio. To be noted: in vivo.
Data set [2] deals with MDA-MB-231. The data set can be described thus: Antimigratory activity against human MDA-MB-231 cells xenografted in zebrafish assessed as inhibition of cell dissemination and invasion at 10 uM measured after 4 days by fluorescence microscopic analysis relative to control. In kind it is functional, cell-based.
Another data set is filed under the species Homo sapiens. The data set can be described thus: Selectivity ratio, ratio of IC50 for human P2X3 receptor expressed in human 1321N1 cells to human P2X7 receptor expressed in HEK293 cells. In kind it is cell-based.
The next data set has as its target T1, P2X purinoceptor 3 (Homo sapiens, UniProt P56373).
T1 sequence (P56373 whole entry): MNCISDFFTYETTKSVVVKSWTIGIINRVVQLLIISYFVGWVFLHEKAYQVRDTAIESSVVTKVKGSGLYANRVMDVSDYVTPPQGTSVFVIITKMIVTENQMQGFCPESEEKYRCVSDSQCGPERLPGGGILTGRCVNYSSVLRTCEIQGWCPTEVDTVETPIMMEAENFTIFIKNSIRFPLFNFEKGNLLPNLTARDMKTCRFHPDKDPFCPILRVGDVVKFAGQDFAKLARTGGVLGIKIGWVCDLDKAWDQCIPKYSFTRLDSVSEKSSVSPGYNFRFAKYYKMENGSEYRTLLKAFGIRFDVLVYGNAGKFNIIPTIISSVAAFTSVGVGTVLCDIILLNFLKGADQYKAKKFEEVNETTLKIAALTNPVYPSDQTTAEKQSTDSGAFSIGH
The data set can be described thus: Antagonist activity at human P2X3 receptor expressed in human 1321N1 cells assessed as inhibition of ATP-induced calcium influx preincubated for 30 mins prior to ATP-stimulation by calcium influx assay. Format: cell-based.

The subject of data set [3] is MDA-MB-231. The data set can be described thus: Antiinvasive activity against human MDA-MB-231 cells measured after 48 hrs by transwell invasion assay. The settings on record: MDA-MB-231, 48 h. In kind it is functional, cell-based.
The test system of data set [4] is MDA-MB-231. The data set can be described thus: Cytotoxicity against human MDA-MB-231 cells assessed as reduction in cell viability at 10 uM measured after 48 hrs by WST-1 cell viability assay. In kind it is cell-based. The settings on record: mda-mb-231, 48 h. (In general: Tetrazolium dyes change colour on reduction, which living cells bring about.)
In data set [5] the target is T2, P2X purinoceptor 7 (Homo sapiens, UniProt Q99572).
T2 sequence (Q99572 whole entry): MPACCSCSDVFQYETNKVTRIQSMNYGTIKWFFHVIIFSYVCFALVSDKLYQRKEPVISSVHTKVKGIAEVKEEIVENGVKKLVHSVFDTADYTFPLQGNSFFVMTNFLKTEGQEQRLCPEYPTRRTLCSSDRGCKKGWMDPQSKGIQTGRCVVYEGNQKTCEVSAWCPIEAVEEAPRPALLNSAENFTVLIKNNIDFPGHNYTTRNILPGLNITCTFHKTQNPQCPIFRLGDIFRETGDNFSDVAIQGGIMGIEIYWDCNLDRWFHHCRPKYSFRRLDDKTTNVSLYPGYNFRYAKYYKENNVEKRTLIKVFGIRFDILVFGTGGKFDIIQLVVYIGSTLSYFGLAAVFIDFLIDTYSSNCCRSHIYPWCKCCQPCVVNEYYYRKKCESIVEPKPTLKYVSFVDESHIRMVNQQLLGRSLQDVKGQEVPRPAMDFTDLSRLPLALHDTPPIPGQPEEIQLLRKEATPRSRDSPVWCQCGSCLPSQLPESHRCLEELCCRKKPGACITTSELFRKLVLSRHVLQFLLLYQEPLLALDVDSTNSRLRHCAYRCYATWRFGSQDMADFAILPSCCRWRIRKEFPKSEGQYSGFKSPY
The data set can be described thus: Antagonist activity at human P2X7 receptor in LPS/IFN-gamma-differentiated human THP-1 cells assessed as suppression of BzATP-stimulated IL-1beta release per-incubated for 30 mins before BzATP addition and measured after 30 mins by ELISA. Format: cell-based. On the technique in general: In an ELISA, binding on a coated surface is turned into a signal by an enzyme label.

Data set [6] concerns the target T3, P2X purinoceptor 2 (Homo sapiens) (UniProt Q9UBL9).
T3 sequence (whole entry): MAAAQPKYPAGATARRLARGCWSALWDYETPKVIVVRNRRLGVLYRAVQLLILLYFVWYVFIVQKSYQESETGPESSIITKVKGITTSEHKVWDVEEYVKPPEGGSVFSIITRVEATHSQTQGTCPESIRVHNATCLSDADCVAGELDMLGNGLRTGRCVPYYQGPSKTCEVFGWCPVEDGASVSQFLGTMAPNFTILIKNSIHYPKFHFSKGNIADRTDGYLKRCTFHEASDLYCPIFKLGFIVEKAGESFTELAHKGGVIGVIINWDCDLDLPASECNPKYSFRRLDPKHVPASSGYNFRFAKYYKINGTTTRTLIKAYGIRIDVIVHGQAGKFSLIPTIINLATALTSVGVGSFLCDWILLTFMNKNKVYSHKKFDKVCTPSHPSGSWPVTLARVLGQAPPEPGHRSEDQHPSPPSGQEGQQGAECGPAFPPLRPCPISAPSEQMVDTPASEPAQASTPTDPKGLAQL
The data set can be described thus: Antagonist activity at human P2X2 receptor expressed in human 1321N1 cells assessed as inhibition of ATP-induced calcium influx at 1 uM preincubated for 30 mins prior to ATP-stimulation by calcium influx assay. Format: cell-based.

For data set [7], the target named is T4, P2X purinoceptor 4 (Homo sapiens) (UniProt Q99571).
T4 sequence (whole entry): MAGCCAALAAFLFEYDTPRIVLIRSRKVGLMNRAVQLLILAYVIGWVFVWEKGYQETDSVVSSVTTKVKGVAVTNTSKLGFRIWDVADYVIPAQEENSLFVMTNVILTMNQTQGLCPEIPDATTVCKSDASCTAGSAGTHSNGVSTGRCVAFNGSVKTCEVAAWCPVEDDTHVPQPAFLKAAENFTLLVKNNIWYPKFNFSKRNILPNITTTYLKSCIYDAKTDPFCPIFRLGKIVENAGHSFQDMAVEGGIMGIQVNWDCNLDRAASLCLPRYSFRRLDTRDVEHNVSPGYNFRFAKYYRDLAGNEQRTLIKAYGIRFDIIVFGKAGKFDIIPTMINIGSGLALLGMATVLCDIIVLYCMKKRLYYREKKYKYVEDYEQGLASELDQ
The data set can be described thus: Antagonist activity at human P2X4 receptor expressed in human 1321N1 cells assessed as inhibition of ATP-induced calcium influx at 1 uM preincubated for 30 mins prior to ATP-stimulation by calcium influx assay. Format: cell-based.

Data set [8] deals with T2, P2X purinoceptor 7. The data set can be described thus: Antagonist activity at human P2X7 receptor expressed in HEK293 cells assessed as inhibition of BzATP-induced EtBr uptake measured after 2 hrs by fluorescence analysis. Format: cell-based.
Data set [9] concerns the target T5, P2X purinoceptor 1 (Homo sapiens) (UniProt P51575).
T5 sequence (whole entry): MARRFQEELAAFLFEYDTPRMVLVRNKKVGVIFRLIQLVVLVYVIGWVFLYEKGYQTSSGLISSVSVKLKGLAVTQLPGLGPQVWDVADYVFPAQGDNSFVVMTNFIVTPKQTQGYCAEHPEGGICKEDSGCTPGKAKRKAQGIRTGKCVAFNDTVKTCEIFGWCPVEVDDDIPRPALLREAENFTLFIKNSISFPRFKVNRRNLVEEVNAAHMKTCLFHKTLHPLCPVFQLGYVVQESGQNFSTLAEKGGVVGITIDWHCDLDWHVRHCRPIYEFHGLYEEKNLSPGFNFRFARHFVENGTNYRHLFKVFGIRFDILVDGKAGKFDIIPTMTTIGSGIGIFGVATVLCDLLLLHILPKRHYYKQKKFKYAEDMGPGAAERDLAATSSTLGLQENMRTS
The data set can be described thus: Antagonist activity at human P2X1 receptor expressed in human 1321N1 cells assessed as inhibition of ATP-induced calcium influx at 1 uM preincubated for 30 mins prior to ATP-stimulation by calcium influx assay. In kind it is cell-based.

Usually inhibition stands for the change of the read-out against control, counted positive when it falls. A word on the IC50: it is the concentration at which inhibition is half-maximal. Turning to `CN(C)c1ccc(C(=O)N2CCC(n3cncc3-c3ccc(OS(=O)(=O)c4cccc5cnccc45)cc3)CC2)cc1`, the Activity entry was “Non-Toxic” in data set [1] and 71% in the data set with MDA-MB-231 [4]. The inhibition result with MDA-MB-231 [2] is “Active”. Further, the Ratio IC50 in the data set filed under Homo sapiens is 1000 to 7000. Besides, the IC50 on P2X purinoceptor 3 was 800 nM; with MDA-MB-231 [3], 2680 nM; at P2X purinoceptor 7 [5], 2.19 nM; on P2X purinoceptor 7 [8], 0.11 nM. Moreover, the inhibition in data set [6] worked out at 11%; in [7], 15%; in [9], 26%.
